Data on one molecule can be found in patent US8962576B2, “Compositions and method for improving endothelial function and cardiovascular health” (Natreon, Inc., priority 2012, dated 2015).

This assay concerns Type 2 Diabetic Subjects. In words: Biomarkers of oxidative stress and hsCRP, study (c). The class given is in vivo, human. As to conditions: CAPROS 250 mg twice daily, Atorvastatin 10 mg daily, n = 20. The procedure: Malondialdehyde (MDA) levels were determined as described in Vidyasagar, et al., “Oxidative stress and antioxidant status in acute organophosphorous insecticide poisoning,” Indian J. Pharmacol. (April 2004) 36(2): 76-79. Glutathione levels were determined as described in G. L. Ellman, Arch. Biochem. Biophys. (1959) 82: 70-77 (original determination). Nitric oxide levels were estimated spectrophotometrically as described in Miranda, et al., “A Rapid, Simple Spectrophotometric Method for Simultaneous Detection of Nitrate and Nitrite,” NITRIC OXIDE: Biology and Chemistry (2001) Vol. 5, No. 1, pp. 62-71.
After screening, all the eligible subjects were randomized to receive either one of the four treatments for a duration of 12 weeks, as follows.
Nitric oxide, MDA, Glutathione (GSH) and levels thereof were estimated spectrophotometrically as described above, and HsCRP (high sensitivity C-reactive protein) by ELISA method.

Turning to `CC(C)c1c(C(=O)Nc2ccccc2)c(-c2ccccc2)c(-c2ccc(F)cc2)n1CC[C@@H](O)C[C@@H](O)CC(=O)O` [Atorvastatin], under “12 weeks”, the “Absolute change in MDA” value was −1.17 ± 0.75 nM/ml, the “Absolute change in NO” value was 28.45 ± 12.30 μM/L, the “Absolute change in hsCRP” value is −2.10 ± 1.26 Mg/L and the “Mean percentage change in MDA” value is −30.55 ± 19.81%. In addition, under “12 weeks”, the “Mean percentage change in NO” value stood at 88.44 ± 50.97% and the “Mean percentage change in hsCRP” value was −64.90 ± 26.99%. For the setting “Post TT, 12 weeks”, this molecule showed an MDA of 2.37 ± 0.59 nM/ml, an NO of 63.69 ± 15.04 μM/L and a hsCRP of 0.97 ± 0.78 Mg/L. For the setting “Pre TT”, this molecule showed an MDA of 3.54 ± 0.85 nM/ml, an NO of 35.24 ± 9.71 μM/L and a hsCRP of 3.08 ± 1.38 Mg/L.
